Here are results for twelve compounds from paper PMC4632759, “Studies on [5,6]-Fused Bicyclic Scaffolds Derivatives as Potent Dual B-Raf^V600E/KDR Inhibitors Using Docking and 3D-QSAR Approaches” (International Journal of Molecular Sciences, 2015).

Where two headings read alike, the source gives them in different places.

One experiment addresses KDR (Homo sapiens, UniProt P35968). The experiment can be described thus: KDR inhibitory activity of designed new compounds (preliminary pharmacological evaluation). In kind it is biochemical. The conditions noted are these: for IC50: preliminary biological tests. The source says:
(§1) The designed molecules were synthesized and the preliminary pharmacological evaluation would be used to verify the biological activity and our design strategy.

Experiment [1] deals with T1, B-Raf^V600E (Homo sapiens, UniProt P15056, V600E). The experiment can be described thus: B-Raf^V600E inhibitory activity of designed new compounds (preliminary pharmacological evaluation). In kind it is biochemical. The conditions noted are these: for IC50: preliminary biological tests.
T1 sequence (P15056 whole entry V600E): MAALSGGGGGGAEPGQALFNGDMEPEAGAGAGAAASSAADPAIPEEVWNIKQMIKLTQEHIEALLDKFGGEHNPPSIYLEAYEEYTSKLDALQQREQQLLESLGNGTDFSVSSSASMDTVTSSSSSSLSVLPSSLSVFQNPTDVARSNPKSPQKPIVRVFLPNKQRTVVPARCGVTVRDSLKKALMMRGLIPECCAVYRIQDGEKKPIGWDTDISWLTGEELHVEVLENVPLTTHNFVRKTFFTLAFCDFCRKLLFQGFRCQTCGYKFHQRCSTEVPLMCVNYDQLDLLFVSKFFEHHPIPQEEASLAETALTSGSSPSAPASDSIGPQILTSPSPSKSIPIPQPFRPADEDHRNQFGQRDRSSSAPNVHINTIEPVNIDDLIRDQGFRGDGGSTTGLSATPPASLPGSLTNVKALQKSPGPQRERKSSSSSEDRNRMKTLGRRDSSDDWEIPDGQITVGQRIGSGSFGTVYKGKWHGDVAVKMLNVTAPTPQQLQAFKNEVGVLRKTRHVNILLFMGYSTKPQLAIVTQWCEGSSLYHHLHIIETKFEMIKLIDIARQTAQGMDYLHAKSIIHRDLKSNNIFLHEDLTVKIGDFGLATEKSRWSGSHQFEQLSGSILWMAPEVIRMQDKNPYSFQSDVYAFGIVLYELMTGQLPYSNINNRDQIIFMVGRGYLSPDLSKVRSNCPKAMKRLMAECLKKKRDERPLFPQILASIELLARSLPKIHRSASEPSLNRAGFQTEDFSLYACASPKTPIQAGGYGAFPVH
Text: as §1

The next experiment deals with wild-type B-Raf. On the set-up: method as in PMID 22376051, PMID 22763369, PMID 22883026, PMID 23906342. Particulars: cited from earlier work.
Experiment [2] addresses T2, VEGFR2 (Homo sapiens, UniProt P35968). On the set-up: method as in PMID 22376051, PMID 22763369, PMID 22883026, PMID 23906342. Particulars: literature values used as 3D-QSAR data set; read-out: Kinase IC50 VEGFR2; cited from earlier work.
Experiment [3] has as its target T1, B-Raf^V600E. Further details: method as in PMID 22376051, PMID 22763369, PMID 22883026, PMID 23906342. The conditions noted are these: literature values used as 3D-QSAR data set; read-out: Kinase IC50 B-Raf^V600E; cited from earlier work.
The next experiment has as its system C-Raf. On the set-up: method as in PMID 22376051, PMID 22763369, PMID 22883026, PMID 23906342. Particulars: cited from earlier work.
Experiment [4] concerns the target T1, B-Raf^V600E. Put plainly: B-Raf^V600E kinase inhibition (literature data set). The format is biochemical. The conditions noted are these: −log IC50 of literature IC50; read-out: B-Raf Actual pIC50 (converted). As to the method: The IC50 values of all compounds for B-Raf and KDR inhibition were converted to the −log IC50 (pIC50) as dependent variables in the 3D-QSAR analysis. The 3D structures for all 40 compounds were built and minimized, and then Gasteiger-Hückel charge was calculated. All works were all done in SYBYL 6.9 (Tripos, Inc.: St. Louis, MO, USA, 2002).

Experiment [5] deals with T2, VEGFR2. Put plainly: VEGFR2 (KDR) kinase inhibition (literature data set). In kind it is biochemical. As to the method:
The IC50 values of all compounds for B-Raf and KDR inhibition were converted to the −log IC50 (pIC50) as dependent variables in the 3D-QSAR analysis. The 3D structures for all 40 compounds were built and minimized, and then Gasteiger-Hückel charge was calculated.

KDR, sequence (P35968 20-1356): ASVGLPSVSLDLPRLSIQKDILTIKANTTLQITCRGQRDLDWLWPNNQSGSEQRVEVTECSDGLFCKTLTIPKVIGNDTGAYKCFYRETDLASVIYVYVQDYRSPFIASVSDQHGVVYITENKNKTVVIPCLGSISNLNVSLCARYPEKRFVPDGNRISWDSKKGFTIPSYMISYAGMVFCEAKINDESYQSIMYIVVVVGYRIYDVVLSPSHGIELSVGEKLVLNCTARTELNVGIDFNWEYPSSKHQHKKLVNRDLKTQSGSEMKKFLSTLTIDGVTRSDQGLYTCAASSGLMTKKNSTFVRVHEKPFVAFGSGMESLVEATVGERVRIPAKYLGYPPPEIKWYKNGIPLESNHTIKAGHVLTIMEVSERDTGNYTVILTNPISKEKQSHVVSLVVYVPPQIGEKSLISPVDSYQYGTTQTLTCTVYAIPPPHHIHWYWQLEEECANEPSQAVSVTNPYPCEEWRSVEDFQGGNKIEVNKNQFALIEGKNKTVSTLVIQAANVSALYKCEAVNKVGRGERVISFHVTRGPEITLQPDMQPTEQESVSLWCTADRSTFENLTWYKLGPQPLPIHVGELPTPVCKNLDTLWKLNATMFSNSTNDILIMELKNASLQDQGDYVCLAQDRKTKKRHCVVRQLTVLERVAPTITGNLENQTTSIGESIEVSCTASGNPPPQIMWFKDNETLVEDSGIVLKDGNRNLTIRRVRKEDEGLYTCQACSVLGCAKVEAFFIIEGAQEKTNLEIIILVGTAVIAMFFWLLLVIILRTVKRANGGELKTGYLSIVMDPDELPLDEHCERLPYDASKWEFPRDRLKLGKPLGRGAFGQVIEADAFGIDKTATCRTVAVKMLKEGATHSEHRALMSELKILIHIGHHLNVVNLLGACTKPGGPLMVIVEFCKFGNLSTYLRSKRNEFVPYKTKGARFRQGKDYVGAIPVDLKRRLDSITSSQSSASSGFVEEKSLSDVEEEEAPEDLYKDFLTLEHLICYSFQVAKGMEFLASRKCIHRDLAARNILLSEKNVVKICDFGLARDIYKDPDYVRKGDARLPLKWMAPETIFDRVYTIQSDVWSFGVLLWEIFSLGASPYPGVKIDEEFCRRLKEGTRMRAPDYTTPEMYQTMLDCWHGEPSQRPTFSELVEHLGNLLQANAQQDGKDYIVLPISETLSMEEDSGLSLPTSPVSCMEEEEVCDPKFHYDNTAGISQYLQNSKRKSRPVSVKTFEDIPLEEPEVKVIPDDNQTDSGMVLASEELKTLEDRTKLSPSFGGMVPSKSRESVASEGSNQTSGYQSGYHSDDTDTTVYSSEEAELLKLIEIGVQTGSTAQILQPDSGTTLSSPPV
T2 sequence (P35968 806-1171): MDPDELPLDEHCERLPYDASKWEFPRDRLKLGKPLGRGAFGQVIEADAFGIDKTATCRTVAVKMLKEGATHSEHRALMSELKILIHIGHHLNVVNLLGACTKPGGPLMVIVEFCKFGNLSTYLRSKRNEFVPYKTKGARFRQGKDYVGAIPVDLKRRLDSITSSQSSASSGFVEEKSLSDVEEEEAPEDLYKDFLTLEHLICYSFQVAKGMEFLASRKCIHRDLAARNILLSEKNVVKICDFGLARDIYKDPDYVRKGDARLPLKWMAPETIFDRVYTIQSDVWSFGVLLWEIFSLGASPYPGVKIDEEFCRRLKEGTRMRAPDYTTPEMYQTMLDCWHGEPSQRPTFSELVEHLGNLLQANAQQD

As to `CC(C)NC(=O)c1nc2ccc(C(=O)c3cccc(NC(=O)Nc4cccc(C(F)(F)F)c4)c3)cc2[nH]1` [Compound D7], the IC50 against KDR was 1520 nM; on B-Raf^V600E [1], greater than 5000 nM.

Consider `O=C(Nc1cccc(C(=O)c2ccc3nc(C(=O)NC4CC4)[nH]c3c2)c1)Nc1cccc(C(F)(F)F)c1` [Compound D8], for which the IC50 is 1320 nM against KDR and greater than 5000 nM on B-Raf^V600E [1].

At KDR, `CNC(=O)c1nc2ccc(C(=O)c3cccc(NC(=O)c4ccc(Cl)c(Cl)c4)c3)cc2[nH]1` [Compound D5] returned an IC50 greater than 5000 nM. At B-Raf^V600E [1], the “Actual pIC50 B-Raf” value worked out at 6.82 and the IC50 came out at 150 nM.

Regarding `CNC(=O)c1nc2ccc(C(=O)c3cccc(NC(=O)c4ccc(C)cc4)c3)cc2[nH]1` [Compound D1], at KDR, the “Actual pIC50 KDR” value came out at 6.00 and the IC50 came to 990 nM. At B-Raf^V600E [1], the “Actual pIC50 B-Raf” value was 6.55 and the IC50 was 280 nM.

As to `CNC(=O)c1nc2ccc(C(=O)c3cccc(NC(=O)c4cccc(F)c4)c3)cc2[nH]1` [Compound D4], the “Actual pIC50 KDR” value at KDR is 6.05. The IC50 is 890 nM on KDR and greater than 5000 nM against B-Raf^V600E [1].

Turning to `CCNC(=O)c1nc2ccc(C(=O)c3cccc(NC(=O)c4cccc(C(F)(F)F)c4)c3)cc2[nH]1` [Compound D6], the “Actual pIC50 KDR” value at KDR is on record as 6.41. For the same compound, the results for the IC50 on KDR and at B-Raf^V600E [1] were 390 nM and greater than 5000 nM, respectively.

Take `CNC(=O)c1nc2ccc(C(=O)c3cccc(NC(=O)c4ccc(Cl)cc4)c3)cc2[nH]1` [Compound D3]: at KDR, the “Actual pIC50 KDR” value is 6.02 and the IC50 worked out at 950 nM. Besides, at B-Raf^V600E [1], the IC50 was greater than 5000 nM.

Take `N#CC1(c2cccc(C(=O)Nc3cc(Oc4ccc5nc(NC(=O)C6CC6)sc5n4)ccc3F)c2Cl)CC1` [Compound 0JA]: the IC50 in the experiment with wild-type B-Raf is 12 nM; at VEGFR2 [2], 2.2 nM; at B-Raf^V600E [3] it was 7 nM; with C-Raf it was 1.5 nM.

For the compound `CC(C)(C#N)c1cccc(C(=O)Nc2cccc(Oc3ccc4nc(NC(=O)C5CC5)[nH]c4n3)c2)c1` [Compound 2-3], the IC50 at VEGFR2 [2] was 3.1 nM; on B-Raf^V600E [3], 17 nM; at B-Raf^V600E [4] it was 17 nM; on VEGFR2 [5], 3.09 nM.

`CCC(=O)Nc1cn2nc(Oc3cccc(NC(=O)c4cccc(C(F)(F)F)c4)c3)ccc2n1` [Compound 1-3]: the IC50 was 1.7 nM on VEGFR2 [2], 6.9 nM at B-Raf^V600E [3], 6.92 nM at B-Raf^V600E [4] and 1.7 nM against VEGFR2 [5].

Regarding `CNC(=O)c1nc2ccc(C(=O)c3cccc(NC(=O)c4cccc(Cl)c4)c3)cc2[nH]1` [Compound D2], on KDR, the “Actual pIC50 KDR” value is listed as 6.68 and the IC50 came out at 210 nM. Further, at B-Raf^V600E [1], the “Actual pIC50 B-Raf” value is listed as 6.38 and the IC50 worked out at 420 nM.

With `CC(C)(C#N)c1cccc(C(=O)Nc2cccc(Oc3ccc4nc(NC(=O)C5CC5)sc4c3)c2)c1` [Compound 2-5], the IC50 was 14 nM on VEGFR2 [2], 25 nM at B-Raf^V600E [3], 25.1 nM on B-Raf^V600E [4] and 14.1 nM on VEGFR2 [5].
